Test results from patent US7250442B2, “Dihydroindol-2-one derivatives as steroid hormone nuclear receptor modulators” (Eli Lilly and Company, priority 2003, dated 2007).

Molecular target: T1, glucocorticoid receptor (Homo sapiens, UniProt P04150)
T1 construct: host or cells: A549 human lung epithelial cells (sonicated cell extract)
T1 sequence (P04150 1-777): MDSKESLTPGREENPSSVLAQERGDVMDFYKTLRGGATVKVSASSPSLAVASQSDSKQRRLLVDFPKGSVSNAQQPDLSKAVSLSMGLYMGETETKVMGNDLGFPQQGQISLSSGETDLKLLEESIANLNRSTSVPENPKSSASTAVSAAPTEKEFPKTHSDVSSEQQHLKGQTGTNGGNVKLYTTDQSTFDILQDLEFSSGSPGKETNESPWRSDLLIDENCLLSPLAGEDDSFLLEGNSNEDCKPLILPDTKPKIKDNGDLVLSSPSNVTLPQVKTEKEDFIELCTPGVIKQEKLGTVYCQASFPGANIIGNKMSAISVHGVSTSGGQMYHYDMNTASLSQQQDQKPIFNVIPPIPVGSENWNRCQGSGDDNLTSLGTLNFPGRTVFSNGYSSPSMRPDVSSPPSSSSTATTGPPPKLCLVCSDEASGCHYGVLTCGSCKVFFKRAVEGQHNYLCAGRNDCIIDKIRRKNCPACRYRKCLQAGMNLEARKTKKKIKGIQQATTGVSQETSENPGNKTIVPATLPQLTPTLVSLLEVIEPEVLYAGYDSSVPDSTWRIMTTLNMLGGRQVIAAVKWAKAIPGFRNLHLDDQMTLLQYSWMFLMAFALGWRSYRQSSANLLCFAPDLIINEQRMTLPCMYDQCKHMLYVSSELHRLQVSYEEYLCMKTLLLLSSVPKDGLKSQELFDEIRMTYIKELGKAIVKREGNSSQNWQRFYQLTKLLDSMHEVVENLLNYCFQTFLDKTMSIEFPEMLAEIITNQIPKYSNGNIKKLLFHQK
Test: Glucocorticoid Receptor Binding Assay ([3H]-dexamethasone displacement, A549 cell extract)
Settings: A549 human lung epithelial cell extract, 1.86 nM [3H]-dexamethasone; read-out: GR Ki
Procedure, shortened: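 A549 cell extract (50-200 ug; buffer 50 mM Tris-HCl pH 7.2 with glycerol, NaCl, MgCl2, EDTA, 10 mM molybdate) incubated with 1.86 nM [3H]-dexamethasone and test compound, 16 h at 4 °C. Unbound ligand removed with dextran-coated charcoal; bound radioactivity counted. IC50 converted to Ki via Cheng-Prusoff.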

Structure (SMILES)	Ki [nM]
COC(=O)c1cccc(CN2C(=O)C(c3cc(C)c(O)c(C)c3)(c3cc(C)c(O)c(C)c3)c3ccccc32)c1 [Example 55, 3-[3,3-Bis-(4-hydroxy-3,5-dimethyl-phenyl)-2-oxo-2,3-dihydro-indol-1-ylmethyl]-benzoic acid methyl ester]	≤ 500
Cc1nc(CN2C(=O)C(c3cc(C)c(O)c(C)c3)(c3cc(C)c(O)c(C)c3)c3ccccc32)cs1 [Example 89, 3,3-Bis-(4-hydroxy-3,5-dimethyl-phenyl)-1-(2-methyl-thiazol-4-ylmethyl)-1,3-dihydro-indol-2-one]	≤ 1000
Cc1cc(C2(c3ccc(O)cc3)C(=O)N(Cc3ccccc3)c3ccccc32)cc(C)c1O (stereo not shown) [Example 29, 1-Benzyl-3-(4-hydroxy-3,5-dimethyl-phenyl)-3-(4-hydroxy-phenyl)-1,3-dihydro-indol-2-one]	≤ 500
Cc1cc(C2(c3cc(C)c(O)c(C)c3)C(=O)N(Cc3c(C)cccc3C)c3ccccc32)cc(C)c1O [Example 107, 1-(2,6-Dimethyl-benzyl)-3,3-bis-(4-hydroxy-3,5-dimethyl-phenyl)-1,3-dihydro-indol-2-one]	≤ 500
Cc1cc(C2(c3cc(C)c(O)c(C)c3)C(=O)N(C3CCCC3)c3ccccc32)cc(C)c1O [Example 114, 1-Cyclopentyl-3,3-bis-(4-hydroxy-3,5-dimethyl-phenyl)-1,3-dihydro-indol-2-one]	≤ 500
Cc1cc(C2(c3cc(C)c(O)c(C)c3)C(=O)N(Cc3cccc(C(F)(F)F)c3)c3ccccc32)cc(C)c1O [Example 61, 3,3-Bis-(4-hydroxy-3,5-dimethyl-phenyl)-1-(3-trifluoromethyl-benzyl)-1,3-dihydro-indol-2-one]	≤ 500
Cc1cc(C2(c3cc(C)c(O)c(C)c3)C(=O)N(Cc3ccc(Cl)c(Cl)c3)c3ccccc32)cc(C)c1O [Example 52, 1-(3,4-Dichloro-benzyl)-3,3-bis-(4-hydroxy-3,5-dimethyl-phenyl)-1,3-dihydro-indol-2-one]	≤ 500
Cc1cc(C2(c3cc(C)c(O)c(C)c3)C(=O)N(CCc3scnc3C)c3ccccc32)cc(C)c1O [Example 121, 3,3-Bis-(4-hydroxy-3,5-dimethyl-phenyl)-1-[2-(4-methyl-thiazol-5-yl)-ethyl]-1,3-dihydro-indol-2-one]	≤ 500
Cc1cc(C2(c3cc(C)c(O)c(C)c3)C(=O)N(Cc3ccc(Br)cc3F)c3ccccc32)cc(C)c1O [Example 81, 1-(4-Bromo-2-fluoro-benzyl)-3,3-bis-(4-hydroxy-3,5-dimethyl-phenyl)-1,3-dihydro-indol-2-one]	≤ 500
Cc1cc(C2(c3cc(C)c(O)c(C)c3)C(=O)N(CC3CC3)c3ccccc32)cc(C)c1O [Example 105, 1-Cyclopropylmethyl-3,3-bis-(4-hydroxy-3,5-dimethyl-phenyl)-1,3-dihydro-indol-2-one]	≤ 500
Cc1cc(C2(c3cc(C)c(O)c(C)c3)C(=O)N(Cc3cccc4ccccc34)c3ccccc32)cc(C)c1O [Example 10, 3,3-Bis-(4-hydroxy-3,5-dimethyl-phenyl)-1-naphthalen-1-ylmethyl-1,3-dihydro-indol-2-one]	≤ 10000
Cc1cc(C2(c3cc(C)c(O)c(C)c3)C(=O)N(Cc3cc(C(F)(F)F)ccc3F)c3ccccc32)cc(C)c1O [Example 112, 1-(2-Fluoro-5-trifluoromethyl-benzyl)-3,3-bis-(4-hydroxy-3,5-dimethyl-phenyl)-1,3-dihydro-indol-2-one]	≤ 500
Cc1ccc2c(c1)C(c1cc(C)c(O)c(C)c1)(c1cc(C)c(O)c(C)c1)C(=O)N2Cc1csc(C)n1 [Example 93, 3,3-Bis-(4-hydroxy-3,5-dimethyl-phenyl)-5-methyl-1-(2-methyl-thiazol-4-ylmethyl)-1,3-dihydro-indol-2-one]	≤ 10000
Cc1cc(C2(c3cc(C)c(O)c(C)c3)C(=O)N(Cc3ccccc3C#N)c3ccccc32)cc(C)c1O [Example 51, 2-[3,3-Bis-(4-hydroxy-3,5-dimethyl-phenyl)-2-oxo-2,3-dihydro-indol-1-ylmethyl]-benzonitrile]	≤ 500
Cc1cc(C2(c3cc(C)c(O)c(C)c3)C(=O)N(Cc3ccccn3)c3ccccc32)cc(C)c1O [Example 100, 3,3-Bis-(4-hydroxy-3,5-dimethyl-phenyl)-1-pyridin-2-ylmethyl-1,3-dihydro-indol-2-one]	≤ 500

Other lines, results leading:

Ki [nM]	Structure (SMILES)
≤ 500	Cc1cc(C2(c3cc(C)c(O)c(C)c3)C(=O)N(c3cccnc3)c3ccccc32)cc(C)c1O [Example 135, 3,3-Bis-(4-hydroxy-3,5-dimethyl-phenyl)-1-pyridin-3-yl-1,3-dihydro-indol-2-one]
≤ 500	Cc1cc(C2(c3cc(C)c(O)c(C)c3)C(=O)N(Cc3ccc(C(F)(F)F)cc3)c3ccccc32)cc(C)c1O [Example 57, 3,3-Bis-(4-hydroxy-3,5-dimethyl-phenyl)-1-(4-trifluoromethyl-benzyl)-1,3-dihydro-indol-2-one]
≤ 500	COc1cccc(C(=O)CN2C(=O)C(c3cc(C)c(O)c(C)c3)(c3cc(C)c(O)c(C)c3)c3ccccc32)c1 [Example 45, 3,3-Bis-(4-hydroxy-3,5-dimethyl-phenyl)-1-[2-(3-methoxy-phenyl)-2-oxo-ethyl]-1,3-dihydro-indol-2-one]
≤ 500	Cc1cc(C2(c3cc(C)c(O)c(C)c3)C(=O)N(Cc3cccc(N)c3)c3ccccc32)cc(C)c1O [Example 118, 1-(3-Amino-benzyl)-3,3-bis-(4-hydroxy-3,5-dimethyl-phenyl)-1,3-dihydro-indol-2-one]
≤ 500	Cc1cc(C2(c3cc(C)c(O)c(C)c3)C(=O)N(Cc3ccc(N)cc3)c3ccccc32)cc(C)c1O [Example 117, 11-(4-Amino-benzyl)-3,3-bis-(4-hydroxy-3,5-dimethyl-phenyl)-1,3-dihydro-indol-2-one]
≤ 500	COc1cccc(N2C(=O)C(c3cc(C)c(O)c(C)c3)(c3cc(C)c(O)c(C)c3)c3ccccc32)c1 [Example 134, 3,3-Bis-(4-hydroxy-3,5-dimethyl-phenyl)-1-(3-methoxy-phenyl)-1,3-dihydro-indol-2-one]
≤ 500	COc1ccc(N2C(=O)C(c3cc(C)c(O)c(C)c3)(c3cc(C)c(O)c(C)c3)c3ccccc32)cc1 [Example 128, 3,3-Bis-(4-hydroxy-3,5-dimethyl-phenyl)-1-(4-methoxy-phenyl)-1,3-dihydro-indol-2-one]
≤ 1000	Cc1cc(C2(c3cc(C)c(O)c(C)c3)C(=O)N(Cc3ccc(C(C)(C)C)cc3)c3ccccc32)cc(C)c1O [Example 7, 1-(4-tert-Butyl-benzyl)-3,3-bis-(4-hydroxy-3,5-dimethyl-phenyl)-1,3-dihydro-indol-2-one]
≤ 500	Cc1cc(C2(c3cc(C)c(O)c(C)c3)C(=O)N(Cc3ccc(O)cc3)c3ccccc32)cc(C)c1O [Example 88, 1-(4-Hydroxy-benzyl)-3,3-bis-(4-hydroxy-3,5-dimethyl-phenyl)-1,3-dihydro-indol-2-one]
≤ 500	COc1ccc(OC)c(C(=O)CN2C(=O)C(c3cc(C)c(O)c(C)c3)(c3cc(C)c(O)c(C)c3)c3ccccc32)c1 [Example 49, 1-[2-(2,5-Dimethoxy-phenyl)-2-oxo-ethyl]-3,3-bis-(4-hydroxy-3,5-dimethyl-phenyl)-1,3-dihydro-indol-2-one]
≤ 500	COc1ccc(C(=O)CN2C(=O)C(c3cc(C)c(O)c(C)c3)(c3cc(C)c(O)c(C)c3)c3ccccc32)cc1 [Example 46, 3,3-Bis-(4-hydroxy-3,5-dimethyl-phenyl)-1-[2-(4-methoxy-phenyl)-2-oxo-ethyl]-1,3-dihydro-indol-2-one]
≤ 500	Cc1cc(C2(c3cc(C)c(O)c(C)c3)C(=O)N(c3cccc(Br)c3)c3ccccc32)cc(C)c1O [Example 139, 1-(3-Bromo-phenyl)-3,3-bis-(4-hydroxy-3,5-dimethyl-phenyl)-1,3-dihydro-indol-2-one]
≤ 500	Cc1cc(C2(c3cc(C)c(O)c(C)c3)C(=O)N(Cc3cccc(Cl)c3)c3ccccc32)cc(C)c1O [Example 60, 1-(3-Chloro-benzyl)-3,3-bis-(4-hydroxy-3,5-dimethyl-phenyl)-1,3-dihydro-indol-2-one]
≤ 500	COc1ccccc1C(=O)CN1C(=O)C(c2cc(C)c(O)c(C)c2)(c2cc(C)c(O)c(C)c2)c2ccccc21 [Example 44, 3,3-Bis-(4-hydroxy-3,5-dimethyl-phenyl)-1-[2-(2-methoxy-phenyl)-2-oxo-ethyl]-1,3-dihydro-indol-2-one]
≤ 500	COc1ccc2c(c1)C(c1cc(C)c(O)c(C)c1)(c1cc(C)c(O)c(C)c1)C(=O)N2Cc1ccccc1 [Example 16, 1-Benzyl-3,3-bis-(4-hydroxy-3,5-dimethyl-phenyl)-5-methoxy-1,3-dihydro-indol-2-one]
≤ 500	Cc1cc(C2(c3cc(C)c(O)c(C)c3)C(=O)N(Cc3ccc(F)cc3)c3ccccc32)cc(C)c1O [Example 2]
